Test results from US10350188B2, “Use of Neu1 sialidase inhibitors in the treatment of cancer” (priority 2011, dated 2019).
Several values for one entry are separate records, joined by “and”; a condition that tells them apart may be missing. Equal values may be shown once.

Key:
MiaPaCa-2 cells = assay: Cell viability of MiaPaCa-2 pancreatic cancer cells in culture (MTT or WST-1, 72 hrs); assay type: cell-based, human
PANC-1 cells = assay: Cell viability of PANC-1 pancreatic cancer cells in culture (MTT or WST-1, 72 hrs); assay type: cell-based, human
BxPC-3 cells = assay: Cell viability of BxPC-3 pancreatic cancer cells in culture (MTT or WST-1, 72 hrs); assay type: cell-based, human; settings: oseltamivir phosphate alone; BxPC-3 (chemo-resistant); MTT or WST-1, 72 hrs
Capan-1 cells = assay: Cell viability of Capan-1 pancreatic metastatic cancer cells in culture (MTT or WST-1, 72 hrs); assay type: cell-based, human; settings: oseltamivir phosphate alone; Capan-1 (chemo-sensitive); MTT or WST-1, 72 hrs
Experimental: CAPAN-1 cells (ATCC® Number: HTB-79™) are human pancreatic cancer cell line with epithelial morphology expressing the 17 beta-estradiol (E2)-binding estrogen receptor and derived from metastatic liver with adenocarcinoma.
(§1) All cells were grown at 37° C. in 5% CO2 in culture media containing Dulbecco's Modified Eagle Medium (DMEM) (Gibco, Rockville, Md.) supplemented with 10% fetal calf serum (FCS) (HyClone, Logan, Utah, USA).
(§2) MTT is a colorimetric assay for measuring the activity of enzymes that reduce MTT or closely related dyes (XTT, MTS, WSTs) to formazan dye, giving a purple color. A main application allows the assessment of the viability (cell counting) and the proliferation of cells (cell culture assays). It can also be used to determine cytotoxicity of potential medicinal agents and toxic materials, since those agents would stimulate or inhibit cell viability and growth. MTT (3-(4,5-Dimethylthiazol-2-yl)-2,5-diphenyltetrazolium bromide, a yellow tetrazole), is reduced to purple formazan in living cells. A solubilization solution (usually either dimethyl sulfoxide, an acidified ethanol solution, or a solution of the detergent sodium dodecyl sulphate in diluted hydrochloric acid) is added to dissolve the insoluble purple formazan product into a coloured solution. The absorbance of this coloured solution can be quantified by measuring at a certain wavelength (usually between 500 and 600 nm) by a spectrophotometer. The absorption maximum is dependent on the solvent employed.
(§3) WST-1 (Roche Applied Sciences, Montreal) is a ready-to-use substrate which measures the metabolic activity of viable cells. The WST-1 assay is nonradioactive and can be performed entirely in a microplate. It is suitable for measuring cell proliferation, cell viability or cytotoxicity. The assay is based on the reduction of WST-1 by viable cells. The reaction produces a soluble formazan salt. The procedure involves: Culturing the cells in a 96-well microplate, then incubating them with WST-1 for approx. 0.5-4 h. During this incubation period, viable cells convert WST-1 to a water-soluble formazan dye. Quantitating the formazan dye in the microplate is done with an ELISA plate reader. The absorbance directly correlates with the cell number.

MDA MB-231 cells = assay: Cell viability of MDA MB-231 breast cancer cells in culture (MTT or WST-1, 72 hrs); assay type: cell-based, human; settings: oseltamivir phosphate alone; MDA MB-231 (chemo-resistant); MTT or WST-1, 72 hrs
Experimental: (§4) MDA MB-231cells (ATCC® Number: HTB-26™) are human mammary gland breast adenocarcinoma derived from metastatic pleural effusion with epithelial morphology. MCF-7 (ATCC® Number: HTB-22™) are human mammary gland breast adenocarcinoma derived from metastatic pleural effusion with epithelial morphology.
as §1, §2, §3

MCF-7 cells = assay: Cell viability of MCF-7 breast cancer cells in culture (MTT or WST-1, 72 hrs); assay type: cell-based, human; settings: oseltamivir phosphate alone; MCF-7 (chemo-sensitive); MTT or WST-1, 72 hrs
Experimental: as §4, §1, §2, §3

A 2780 cells = assay: Cell viability of A 2780 ovarian cancer cells in culture (MTT or WST-1, 72 hrs); assay type: cell-based, human; settings: oseltamivir phosphate alone; A 2780 (chemo-sensitive); MTT or WST-1, 72 hrs
Experimental: (§5) A-2780 cells are human ovarian cancer cell line which was established from tumor tissue from an untreated patient with adenocarcinoma. Cells grow as a monolayer and in suspension in spinner cultures.
as §1, §2, §3

A 2780cis cells = assay: Cell viability of A 2780cis ovarian cancer cells in culture (MTT or WST-1, 72 hrs); assay type: cell-based, human; settings: oseltamivir phosphate alone; A 2780cis (chemo-resistant); MTT or WST-1, 72 hrs
Experimental: as §5, §1, §2, §3

[1] = system: MiaPaCa-2-eGFP pancreatic cancer cells implanted in RAG2/Cγ double mutant Balbc xenograft mice; assay: MiaPaCa-2-eGFP pancreatic cancer xenograft in RAG2/Cγ double mutant Balbc mice; assay type: in vivo, mouse
Experimental: Tumour measurements were taken twice a week.
MiaPaCa-2-eGFP pancreatic cancer cells at 1.5×10^6 in 0.2 mL were implanted subcutaneously in the right back flank of these mice. Each mouse in the study was identified by an ear punch number. Twice a week each mouse following implantation of the cancer cells was monitored for tumour volume growth (length and width) at the site of implantation, body weights, and body condition scoring. Scoring the body condition of rodents is a non-invasive method for assessing health and establishing endpoints for adults where body weight is not a viable monitoring tool, such as with tumour models. Body condition scores (BC) range from 1(emaciation) to 5 (obesity). An anticipated BCS of 2—under conditioned—or lower, requires justification in the protocol. Scores are determined by frequent visual and hands-on examination of each animal. The hands-on evaluation is done by gently holding the mouse by the base of the tail and passing a finger over the sacroiliac bones. The findings are matched to the descriptions and diagrams of BC ranges to determine a score. Scores are documented for each animal.

[2] = system: PANC-1 human pancreatic cancer cells implanted in RAG1/Cγ double mutant NOD xenograft mice; assay: PANC-1 pancreatic cancer xenograft in RAG1/Cγ double mutant NOD mice; settings: for Liver metastases % Inhibition: vs untreated day 79
From the text: An immunodeficient mouse model with a double mutation in the combining recombinase activating gene-1 or -2 (RAG1 or RAG2) and common cytokine receptor γ chain (cγ) were used as xenograft mice. […] Mice deficient in both RAG2 and cγ (RAG2−/−/cγ−/−) were generated by inter-crossing and were maintained in SPF isolators in the Animal Care Facility, Queen's University, Kingston, Ontario K7L3N6, Canada. A colony was established in the animal facility. Mice deficient in both RAG1 and cγ (RAG1^−/−×cγ^−/−) on a non-obese diabetic (NOD) genetic background were obtained from the Jackson Laboratory (Bar Harbor, Me.) and a colony was established in the animal facility. All mice were kept under sterile conditions in micro-isolators or air-filtered cages, and were provided with autoclaved food and water. […] They were used between 6 and 8 weeks of age.
Puromycin-resistance eGFP transduced MiaPaCa-2 or PANC-1 cell clones were grown in 75 cm^2 cell culture flask at 80% confluence. The cells were resuspended into solution using TrypLE Express (Gibco) and washed with sterile saline. The cell suspension was centrifuged for 3 min at 900 rpm, and the cell pellet resuspended in sterile saline at a concentration of 5-10×10^6 cells/mL for 1-2×10^6 cells implantation into the right back flank of the mouse. Tumour measurements were taken twice a week. Tumour volumes were determined by (width square/2)×length.
The RAG1/Cγ double mutant xenograft mouse model was implanted with 2×10^6 PANC-1 cells in 0.2 mL in the right back flank.

[3] = oseltamivir phosphate analogues (TD), WST-1, 72 hrs
[4] = day 84, oseltamivir phosphate 2 mg/kg daily, alone or with Abraxane 0.5 / Gemcitabine 30 mg/kg
[5] = day 84, oseltamivir phosphate 5 mg/kg daily, alone or with Abraxane 0.5 / Gemcitabine 30 mg/kg
[6] = day 93, oseltamivir phosphate 2 mg/kg daily, alone or with Gemcitabine 30 mg/kg
[7] = day 93, oseltamivir phosphate 5 mg/kg daily, alone or with Gemcitabine 30 mg/kg
[8] = oseltamivir phosphate 2 mg/kg, alone day 90, with abraxane 0.5 day 78, with gemcitabine 30 day 110

CCOC(=O)C1=C[C@@H](OC(CC)CC)[C@H](NC(C)=O)[C@@H](N)C1 [oseltamivir phosphate]
LD50 (MiaPaCa-2 cells; oseltamivir phosphate alone, MiaPaCa (chemo-resistant), MTT or WST-1, 72 hrs): 850 µM | LD50 MiaPaCa-2 (MiaPaCa-2 cells; [3]): 850 µM | LD50 (PANC-1 cells; oseltamivir phosphate alone, PANC-1 (chemo-resistant), MTT or WST-1, 72 hrs): 1462 µM | LD50 PANC-1 (PANC-1 cells; [3]): 1462 µM | LD50 (BxPC-3 cells): 975 µM | LD50 (Capan-1 cells): 2 µM | LD50 (MDA MB-231 cells): 0.6 µM | LD50 (MCF-7 cells): >3 µM | LD50 (A 2780 cells): 1.5 µM | LD50 (A 2780cis cells): 1.0 µM | % Inhibition (tumour volume) ([1]; Table 8 study, day 46, 50 mg/kg, vs untreated): 60.4% | % Inhibition (tumour volume) ([1]; Table 8 study, day 46, 100 mg/kg, vs untreated): 61.0% | % Inhibition (tumour volume) ([1]; Table 8 study, day 46, 200 mg/kg, vs untreated): 58.5% | Tumour volume ([1]; Table 8 study, day 46 post implantation, oseltamivir phosphate 50 mg/kg): 368 ± 38 (4) mm^3 | Tumour volume ([1]; Table 8 study, day 46 post implantation, oseltamivir phosphate 100 mg/kg): 362 ± 62 (4) mm^3 | Tumour volume ([1]; Table 8 study, day 46 post implantation, oseltamivir phosphate 200 mg/kg): 386 ± 88 (4) mm^3 | % Inhibition (tumour volume) ([1]; day 48, 2 mg/kg i.p., vs untreated): 61.7% | % Inhibition (tumour volume) ([1]; day 48, 10 mg/kg i.p., vs untreated): 71.5% | % Inhibition (tumour volume) ([1]; day 48, 50 mg/kg i.p., vs untreated): 60.3% | % Inhibition (tumour volume) ([1]; day 48, 100 mg/kg i.p., vs untreated): 58.9% | Tumour volume ([1]; day 48 post implantation, oseltamivir phosphate 2 mg/kg i.p.): 370 ± 88 (5) mm^3 | Tumour volume ([1]; day 48 post implantation, oseltamivir phosphate 10 mg/kg i.p.): 275 ± 71 (6) mm^3 | Tumour volume ([1]; day 48 post implantation, oseltamivir phosphate 50 mg/kg i.p.): 383 ± 71 (4) mm^3 | Tumour volume ([1]; day 48 post implantation, oseltamivir phosphate 100 mg/kg i.p.): 397 ± 57 (5) mm^3 | % Inhibition (tumour volume) ([1]; day 61, 2 mg/kg i.p.): 34.1% | % Inhibition (tumour volume) ([1]; day 61, 10 mg/kg i.p.): 26.3% | % Inhibition (tumour volume) ([1]; day 61, 50 mg/kg i.p.): 32.4% | % Inhibition (tumour volume) ([1]; day 61, 100 mg/kg i.p.): 27.4% | Tumour volume ([1]; day 61 post implantation, oseltamivir phosphate 2 mg/kg i.p.): 636 ± 35 (2) mm^3 | Tumour volume ([1]; day 61 post implantation, oseltamivir phosphate 10 mg/kg i.p.): 711 ± 159 (5) mm^3 | Tumour volume ([1]; day 61 post implantation, oseltamivir phosphate 50 mg/kg i.p.): 652 ± 173 (3) mm^3 | Tumour volume ([1]; day 61 post implantation, oseltamivir phosphate 100 mg/kg i.p.): 701 ± 201 (3) mm^3 | Reduction of tumour growth in time-to-progression ([1]; oseltamivir phosphate 2, 10, 50 and 100 mg/kg i.p. from day 40 post implantation, vs untreated): over 50% | % Inhibition To untreated ([2]; day 79, oseltamivir phosphate 2 mg/kg daily, alone or with Abraxane 0.5 / Gemcitabine 30 mg/kg): 35% (n.s.) | Tumour volume ([2]; day 79, oseltamivir phosphate 2 mg/kg i.p. daily, alone or with Abraxane 0.5 / Gemcitabine 30 mg/kg): 901 ± 104 (5) mm^3 | % Inhibition To untreated ([2]; day 79, oseltamivir phosphate 5 mg/kg daily, alone or with Abraxane 0.5 / Gemcitabine 30 mg/kg): 31% (n.s.) | Tumour volume ([2]; day 79, oseltamivir phosphate 5 mg/kg i.p. daily, alone or with Abraxane 0.5 / Gemcitabine 30 mg/kg): 956 ± 345 (4) mm^3 | % Inhibition To untreated [2, 4]: 22% (n.s.) | Tumour volume [2, 4]: 1079 ± 91 (5) mm^3 | % Inhibition To untreated [2, 5]: 5% (n.s.) | Tumour volume [2, 5]: 1321 ± 503 (4) mm^3 | % Inhibition To untreated [2, 6]: 0% (n.s.) | Tumour volume [2, 6]: 1554 ± 469 (2) mm^3 | % Inhibition To untreated [2, 7]: 0% (n.s.) | Tumour volume [2, 7]: 1406 ± 471 (2) mm^3 | Liver metastases (ave number of nodules) ([2]; oseltamivir phosphate 2 mg/kg, alone day 90, with abraxane 0.5 mg/kg day 78, with gemcitabine 30 mg/kg day 110): 26 | Metastases (size, mm) [2, 8]: 0.2-1.3 mm | Liver metastases % Inhibition [2, 8]: 38% | Liver metastases (ave number of nodules) ([2]; oseltamivir phosphate 5 mg/kg, alone day 90, with abraxane 0.5 mg/kg day 90, with gemcitabine 30 mg/kg day 109): 21 | Liver metastases % Inhibition ([2]; oseltamivir phosphate 5 mg/kg, alone day 90, with abraxane 0.5 day 90, with gemcitabine 30 day 109): 50% | Survival of tumour bearing mice ([2]; oseltamivir phosphate 2 and 5 mg/kg, Abraxane 0.5 mg/kg, gemcitabine 30 mg/kg, alone or combined, untreated control day 80): 91 days and 94 days
